Data published in article PMC10447463, “Data-mining unveils structure–property–activity correlation of viral infectivity enhancing self-assembling peptides” (Nature Communications, 2023).
Where two headings read alike, the source gives them in different places.

How the values were obtained:
TZM-bl cells = type: cell-based; conditions: CellTiter-Glo, mean of n = 3 replicates; for viability 0.26 µM: peptide 0.26 µM; for viability 1.3 µM: peptide 1.3 µM; for viability 6.5 µM: peptide 6.5 µM
Outline: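 CellTiter-Glo luminescence, normalized to 100% metabolic activity, gave cytotoxicity readout for TZM-bl cells exposed to peptide serial dilutions for 3 days; 10,000 cells seeded, triplicate measurements.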

[1] = type: physicochemical
Outline: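 Fibrils (1 mg/mL solution) were mixed with 50 µM ThT in PBS for 15 min at RT, and fluorescence was read at λex 440/λem 488 nm against a PBS blank, as a triplicate mean ± SD. Zeta potential came from electrophoretic mobility (Smoluchowski) after 1 d aggregation at 1 mg/mL in PBS pH 7.4, diluted into 1 mM KCl.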

[2] = β-sheet content by ATR-FT-IR; type: physicochemical
Outline: (§1)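 Spectra: 64 scans, 2 cm^-1, lyophilized PNF (1 mg/mL source). CR = 100 − 100 × filtrate/original fluorescamine signal; triplicate, ± SD.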

[3] = Conversion rate (CR) assay with fluorescamine; type: physicochemical
Outline: as §1

[4] = ThT fluorescence relative to blank, blank = 42.1851851851852
[5] = ThT fluorescence relative to blank (42.1851851851852 a.u.)
[6] = relative to blank 42.1851851851852 a.u.

Substance: HHHHKIKIQINMYYYY [TM16]
- viability 0.26 µM (TZM-bl cells): 118.7
- viability 1.3 µM (TZM-bl cells): 114.9
- viability 6.5 µM (TZM-bl cells): 85.37
- Tht rel to blank (42.1851851851852) [1, 4]: 12.17
- Tht category (> 1.5 to blank = +) ([1]; category 1/0): 1 (ThT. Cat is 1, if Rel. ThT >2)
- FTIR ß-sheet content/ % ([2]; ATR-FT-IR): 46.73%
- Conversion Rate / % ([3]; fluorescamine assay): 98.42%

Substance: HIHIQIC [CN12]
- viability 0.26 µM (TZM-bl cells): 99.21
- viability 1.3 µM (TZM-bl cells): 105
- viability 6.5 µM (TZM-bl cells): 101.2
- Tht rel to blank (42.1851851851852) [1, 4]: 12.46
- Tht category (> 1.5 to blank = +) ([1]; category 1/0): 1 (ThT. Cat is 1, if Rel. ThT >2)
- FTIR ß-sheet content/ % ([2]; ATR-FT-IR): 48.25%
- Conversion Rate / % ([3]; fluorescamine assay): 82.72%

Substance: KFKFQFFF [TG12]
- viability 0.26 µM (TZM-bl cells): 108.2
- viability 1.3 µM (TZM-bl cells): 109.4
- viability 6.5 µM (TZM-bl cells): 97
- Tht rel to blank (42.1851851851852) [1, 5]: 2.58
- Tht rel to blank (42.1851851851852) [1, 4]: 2.58
- Tht category (> 1.5 to blank = +) ([1]; category 1/0): 1 (ThT. Cat is 1, if Rel. ThT >2)
- Tht rel to blank (42.1851851851852) [1, 6]: 2.58
- FTIR ß-sheet content/ % [2]: 49.11%
- FTIR ß-sheet content/ % ([2]; ATR-FT-IR): 49.11%
- Conversion Rate / % [3]: 97.92%
- Conversion Rate / % ([3]; fluorescamine assay): 97.92%

Substance: RGDKIKIQINM [MG8a / CN17]
- viability 0.26 µM (TZM-bl cells): 107.7
- viability 1.3 µM (TZM-bl cells): 105.2
- viability 6.5 µM (TZM-bl cells): 86.63
- Tht rel to blank (42.1851851851852) [1, 5]: 9.126
- Tht rel to blank (42.1851851851852) [1, 4]: 9.126
- Tht category (> 1.5 to blank = +) ([1]; category 1/0): 1 (ThT. Cat is 1, if Rel. ThT >2)
- Tht rel to blank (42.1851851851852) [1, 6]: 9.126
- FTIR ß-sheet content/ % [2]: 45.52%
- FTIR ß-sheet content/ % ([2]; ATR-FT-IR): 45.52%
- Conversion Rate / % [3]: 73.83%
- Conversion Rate / % ([3]; fluorescamine assay): 73.83%

Substance: RGDKIKIQINMC [psis29]
- viability 0.26 µM (TZM-bl cells): 103.4
- viability 1.3 µM (TZM-bl cells): 101.5
- viability 6.5 µM (TZM-bl cells): 82.89
- Tht rel to blank (42.1851851851852) [1, 5]: 1.396
- Tht category (> 1.5 to blank = +) ([1]; category 1/0): 0 (ThT-inactive (N-Fold <2))
- Tht rel to blank (42.1851851851852) [1, 6]: 1.396

Substance: RGDKIKIQINMWQ [MG9a]
- viability 0.26 µM (TZM-bl cells): 104.4
- viability 1.3 µM (TZM-bl cells): 105.9
- viability 6.5 µM (TZM-bl cells): 88.59
- Tht category (> 1.5 to blank = +) ([1]; FigS26): 0 (Tht category (> 1.5 to blank = +))
- Tht rel to blank (42.1851851851852) [1, 5]: 1.781
- Tht category (> 1.5 to blank = +) ([1]; category 1/0): 0 (ThT-inactive (N-Fold <2))
- Tht rel to blank (42.1851851851852) [1, 6]: 1.781

Substance: RGECKFKFQF [CN16]
- viability 0.26 µM (TZM-bl cells): 105.4
- viability 1.3 µM (TZM-bl cells): 106.3
- viability 6.5 µM (TZM-bl cells): 102.8
- Tht rel to blank (42.1851851851852) [1, 4]: 2.392
- Tht category (> 1.5 to blank = +) ([1]; category 1/0): 1 (ThT. Cat is 1, if Rel. ThT >2)
- FTIR ß-sheet content/ % ([2]; ATR-FT-IR): 46.18%
- Conversion Rate / % ([3]; fluorescamine assay): 98.71%

Substance: RGEKIKIQINM [CN18]
- viability 0.26 µM (TZM-bl cells): 93.96
- viability 1.3 µM (TZM-bl cells): 87.66
- viability 6.5 µM (TZM-bl cells): 79.74
- Tht rel to blank (42.1851851851852) [1, 4]: 3.423
- Tht category (> 1.5 to blank = +) ([1]; category 1/0): 1 (ThT. Cat is 1, if Rel. ThT >2)
- FTIR ß-sheet content/ % ([2]; ATR-FT-IR): 43.05%
- Conversion Rate / % ([3]; fluorescamine assay): 80.28%

Substance: RLRLTLC [CN13]
- viability 0.26 µM (TZM-bl cells): 120.7
- viability 1.3 µM (TZM-bl cells): 120.4
- viability 6.5 µM (TZM-bl cells): 108.4
- Tht rel to blank (42.1851851851852) [1, 4]: 1.899
- Tht category (> 1.5 to blank = +) ([1]; category 1/0): 0 (ThT-inactive (N-Fold <2))
- FTIR ß-sheet content/ % ([2]; ATR-FT-IR): 20.69%
- Conversion Rate / % ([3]; fluorescamine assay): 87.44%
